# According to patent US20230085307A1, “PYRIDAZINONE COMPOUND AND HERBICIDE” (NISSAN CHEMICAL CORPORATION, priority 2019, published 2023):
# How the values were obtained:
# [1] = test system: green foxtail; assay: Test Example 5: herbicidal effect by foliage application, plastic box (Table 20, symbol G); format: in vivo, green foxtail (Setaria viridis); conditions: foliage application after 14-day growth, evaluated three weeks after application; for herbicidal effect on G: green foxtail (evaluation grade 0-5): 320 g/ha; for Herbicidal effect by foliage application, G: green foxtail: amount of applied herbicide 320 g/ha
# Outline: (§1)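 Post-emergence foliar test in sterilized diluvial soil. Compound applied as water-diluted emulsion at a predetermined rate to 14-day-old plants; evaluation at three weeks.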
# [2] = test system: chickweed; assay: Test Example 5: herbicidal effect by foliage application, plastic box (Table 20, symbol P); format: in vivo, common chickweed (Stellaria media); conditions: foliage application after 14-day growth, evaluated three weeks after application; for herbicidal effect on P: chickweed (evaluation grade 0-5): 320 g/ha; for Herbicidal effect by foliage application, P: chickweed: amount of applied herbicide 320 g/ha
# Outline: as §1
# [3] = test system: southern crabgrass; assay: Test Example 5: herbicidal effect by foliage application, plastic box (Table 20, symbol F); format: in vivo, southern crabgrass (Digitaria ciliaris); conditions: foliage application after 14-day growth, evaluated three weeks after application; for herbicidal effect on F: southern crabgrass (evaluation grade 0-5): 320 g/ha; for Herbicidal effect by foliage application, F: southern crabgrass: amount of applied herbicide 320 g/ha
# Outline: as §1
# [4] = test system: persian speedwell; assay: Test Example 5: herbicidal effect by foliage application, plastic box (Table 20, symbol R); format: in vivo, Persian speedwell (Veronica persica); conditions: foliage application after 14-day growth, evaluated three weeks after application; for herbicidal effect on R: persian speedwell (evaluation grade 0-5): 320 g/ha; for Herbicidal effect by foliage application, R: persian speedwell: amount of applied herbicide 320 g/ha
# Outline: as §1
# [5] = test system: Italian ryegrass; assay: Test Example 5: herbicidal effect by foliage application, plastic box (Table 20, symbol K); format: in vivo, Italian ryegrass (Lolium multiflorum); conditions: foliage application after 14-day growth, evaluated three weeks after application; for herbicidal effect on K: Italian ryegrass (evaluation grade 0-5): 320 g/ha; for Herbicidal effect by foliage application, K: Italian ryegrass: amount of applied herbicide 320 g/ha
# Outline: as §1
# [6] = test system: barnyard grass; assay: Test Example 3: herbicidal effect by foliage application, Wagner pot (Table 18, symbol H); format: in vivo, barnyard grass (Echinochloa crus-galli); conditions: 320 g/ha
# Outline: (§2)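 Plants were sown in alluvial soil held under 0.1–0.5 cm standing water and grown 14 days in a greenhouse at 25–30 °C. An emulsifiable formulation, water-diluted to the set dose, was then sprayed onto the foliage, and effects were scored three weeks later using previously defined criteria.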
# [7] = test system: wild oat; assay: Test Example 5: herbicidal effect by foliage application, plastic box (Table 20, symbol I); format: in vivo, wild oat (Avena fatua); conditions: foliage application after 14-day growth, evaluated three weeks after application; for herbicidal effect on I: wild oat (evaluation grade 0-5): 320 g/ha; for Herbicidal effect by foliage application, I: wild oat: amount of applied herbicide 320 g/ha
# Outline: as §1
# [8] = test system: lambsquarters; assay: Test Example 5: herbicidal effect by foliage application, plastic box (Table 20, symbol O); format: in vivo, lambsquarters (Chenopodium album); conditions: foliage application after 14-day growth, evaluated three weeks after application; for herbicidal effect on O: lambsquarters (evaluation grade 0-5): 320 g/ha; for Herbicidal effect by foliage application, O: lambsquarters: amount of applied herbicide 320 g/ha
# Outline: as §1
# [9] = test system: redroot pigweed; assay: Test Example 5: herbicidal effect by foliage application, plastic box (Table 20, symbol N); format: in vivo, redroot pigweed (Amaranthus retroflexus); conditions: foliage application after 14-day growth, evaluated three weeks after application; for herbicidal effect on N: redroot pigweed (evaluation grade 0-5): 320 g/ha; for Herbicidal effect by foliage application, N: redroot pigweed: amount of applied herbicide 320 g/ha
# Outline: as §1
# [10] = test system: windgrass; assay: Test Example 5: herbicidal effect by foliage application, plastic box (Table 20, symbol L); format: in vivo, windgrass (Apera spica-venti); conditions: foliage application after 14-day growth, evaluated three weeks after application; for herbicidal effect on L: windgrass (evaluation grade 0-5): 320 g/ha; for Herbicidal effect by foliage application, L: windgrass: amount of applied herbicide 320 g/ha
# Outline: as §1
# [11] = test system: Chinese sprangletop; assay: Test Example 3: herbicidal effect by foliage application, Wagner pot (Table 18, symbol D); format: in vivo, chinese sprangletop (Leptochloa chinensis); conditions: 320 g/ha
# Outline: as §2
# [12] = test system: barnyard grass; assay: Test Example 5: herbicidal effect by foliage application, plastic box (Table 20, symbol H); format: in vivo, barnyard grass (Echinochloa crus-galli); conditions: foliage application after 14-day growth, evaluated three weeks after application; for herbicidal effect on H: barnyard grass (evaluation grade 0-5): 320 g/ha; for Herbicidal effect by foliage application, H: barnyard grass: amount of applied herbicide 320 g/ha
# Outline: as §1
# [13] = test system: velvetleaf; assay: Test Example 5: herbicidal effect by foliage application, plastic box (Table 20, symbol M); format: in vivo, velvetleaf (Abutilon theophrasti); conditions: foliage application after 14-day growth, evaluated three weeks after application; for herbicidal effect on M: velvetleaf (evaluation grade 0-5): 320 g/ha; for Herbicidal effect by foliage application, M: velvetleaf: amount of applied herbicide 320 g/ha
# Outline: as §1
# [14] = test system: blackgrass; assay: Test Example 5: herbicidal effect by foliage application, plastic box (Table 20, symbol J); format: in vivo, blackgrass (Alopecurus myosuroides); conditions: foliage application after 14-day growth, evaluated three weeks after application; for herbicidal effect on J: blackgrass (evaluation grade 0-5): 320 g/ha; for Herbicidal effect by foliage application, J: blackgrass: amount of applied herbicide 320 g/ha
# Outline: as §1
# [15] = test system: rice flat sedge; assay: Test Example 3: herbicidal effect by foliage application, Wagner pot (Table 18, symbol E); format: in vivo, rice flat sedge (Cyperus iria); conditions: 320 g/ha
# Outline: as §2
SMILES,herbicidal effect on G: green foxtail (evaluation grade 0-5) [1],herbicidal effect on P: chickweed (evaluation grade 0-5) [2],herbicidal effect on F: southern crabgrass (evaluation grade 0-5) [3],herbicidal effect on R: persian speedwell (evaluation grade 0-5) [4],herbicidal effect on K: Italian ryegrass (evaluation grade 0-5) [5],herbicidal effect on barnyard grass (H) [6],herbicidal effect on Chinese sprangletop (D) [11],herbicidal effect on rice flat sedge (E) [15],"Herbicidal effect by foliage application, G: green foxtail [1]","Herbicidal effect by foliage application, P: chickweed [2]","Herbicidal effect by foliage application, F: southern crabgrass [3]","Herbicidal effect by foliage application, R: persian speedwell [4]","Herbicidal effect by foliage application, K: Italian ryegrass [5]","Herbicidal effect by foliage application, I: wild oat [7]","Herbicidal effect by foliage application, O: lambsquarters [8]","Herbicidal effect by foliage application, N: redroot pigweed [9]","Herbicidal effect by foliage application, L: windgrass [10]","Herbicidal effect by foliage application, H: barnyard grass [12]","Herbicidal effect by foliage application, M: velvetleaf [13]","Herbicidal effect by foliage application, J: blackgrass [14]",other results
Cc1ccccc1-c1sc2c(Cl)cccc2c1-c1c(O)c(C)nn(C)c1=O [4-060],0 (Herbicidal rate of 5% or less (almost no effect)),4 (Herbicidal rate of 70% or more and less than 90%),0 (Herbicidal rate of 5% or less (almost no effect)),0 (Herbicidal rate of 5% or less (almost no effect)),0 (Herbicidal rate of 5% or less (almost no effect)),3 (Herbicidal rate of 40% or more and less than 70%),1 (Herbicidal rate of 5% or more and less than 20%),3 (Herbicidal rate of 40% or more and less than 70%),–,–,–,–,–,–,–,–,–,–,–,–,herbicidal effect on I: wild oat (evaluation grade 0-5) [7]: 0 (Herbicidal rate of 5% or less (almost no effect)); herbicidal effect on O: lambsquarters (evaluation grade 0-5) [8]: 0 (Herbicidal rate of 5% or less (almost no effect)); herbicidal effect on N: redroot pigweed (evaluation grade 0-5) [9]: 2 (Herbicidal rate of 20% or more and less than 40%); herbicidal effect on L: windgrass (evaluation grade 0-5) [10]: 4 (Herbicidal rate of 70% or more and less than 90%); herbicidal effect on H: barnyard grass (evaluation grade 0-5) [12]: 0 (Herbicidal rate of 5% or less (almost no effect)); herbicidal effect on M: velvetleaf (evaluation grade 0-5) [13]: 0 (Herbicidal rate of 5% or less (almost no effect)); herbicidal effect on J: blackgrass (evaluation grade 0-5) [14]: 0 (Herbicidal rate of 5% or less (almost no effect))
CCCCOc1cccc(-c2sc3c(Cl)cccc3c2-c2c(OC(=O)CCC)c(C)nn(C)c2=O)c1 [4-069],0 (Herbicidal rate of 5% or less (almost no effect)),4 (Herbicidal rate of 70% or more and less than 90%),0 (Herbicidal rate of 5% or less (almost no effect)),4 (Herbicidal rate of 70% or more and less than 90%),0 (Herbicidal rate of 5% or less (almost no effect)),4 (Herbicidal rate of 70% or more and less than 90%),3 (Herbicidal rate of 40% or more and less than 70%),3 (Herbicidal rate of 40% or more and less than 70%),–,–,–,–,–,–,–,–,–,–,–,–,herbicidal effect on I: wild oat (evaluation grade 0-5) [7]: 0 (Herbicidal rate of 5% or less (almost no effect)); herbicidal effect on O: lambsquarters (evaluation grade 0-5) [8]: 0 (Herbicidal rate of 5% or less (almost no effect)); herbicidal effect on N: redroot pigweed (evaluation grade 0-5) [9]: 0 (Herbicidal rate of 5% or less (almost no effect)); herbicidal effect on L: windgrass (evaluation grade 0-5) [10]: 0 (Herbicidal rate of 5% or less (almost no effect)); herbicidal effect on H: barnyard grass (evaluation grade 0-5) [12]: 0 (Herbicidal rate of 5% or less (almost no effect)); herbicidal effect on M: velvetleaf (evaluation grade 0-5) [13]: 0 (Herbicidal rate of 5% or less (almost no effect)); herbicidal effect on J: blackgrass (evaluation grade 0-5) [14]: 0 (Herbicidal rate of 5% or less (almost no effect))
CCCC(=O)Oc1c(C)nn(C)c(=O)c1-c1c(-c2ccccc2OCc2ccccc2)sc2c(Cl)cccc12 [4-085],–,–,–,–,–,2 (Herbicidal rate of 20% or more and less than 40%),0 (Herbicidal rate of 5% or less (almost no effect)),2 (Herbicidal rate of 20% or more and less than 40%),0 (Herbicidal rate of 5% or less (almost no effect)),4 (Herbicidal rate of 70% or more and less than 90%),0 (Herbicidal rate of 5% or less (almost no effect)),2 (Herbicidal rate of 20% or more and less than 40%),0 (Herbicidal rate of 5% or less (almost no effect)),0 (Herbicidal rate of 5% or less (almost no effect)),0 (Herbicidal rate of 5% or less (almost no effect)),0 (Herbicidal rate of 5% or less (almost no effect)),0 (Herbicidal rate of 5% or less (almost no effect)),3 (Herbicidal rate of 40% or more and less than 70%),0 (Herbicidal rate of 5% or less (almost no effect)),0 (Herbicidal rate of 5% or less (almost no effect)),–
CCSc1ccccc1-c1sc2c(Cl)cccc2c1-c1c(O)c(C)nn(C)c1=O [4-090],–,–,–,–,–,5 (Herbicidal rate of 90% or more (almost completely withered)),3 (Herbicidal rate of 40% or more and less than 70%),2 (Herbicidal rate of 20% or more and less than 40%),3 (Herbicidal rate of 40% or more and less than 70%),0 (Herbicidal rate of 5% or less (almost no effect)),4 (Herbicidal rate of 70% or more and less than 90%),1 (Herbicidal rate of 5% or more and less than 20%),0 (Herbicidal rate of 5% or less (almost no effect)),0 (Herbicidal rate of 5% or less (almost no effect)),0 (Herbicidal rate of 5% or less (almost no effect)),3 (Herbicidal rate of 40% or more and less than 70%),0 (Herbicidal rate of 5% or less (almost no effect)),3 (Herbicidal rate of 40% or more and less than 70%),0 (Herbicidal rate of 5% or less (almost no effect)),0 (Herbicidal rate of 5% or less (almost no effect)),–
CCCC(=O)Oc1c(C)nn(C)c(=O)c1-c1c(-c2cccc(SCC)c2)sc2c(Cl)cccc12 [4-093],–,–,–,–,–,5 (Herbicidal rate of 90% or more (almost completely withered)),4 (Herbicidal rate of 70% or more and less than 90%),4 (Herbicidal rate of 70% or more and less than 90%),2 (Herbicidal rate of 20% or more and less than 40%),1 (Herbicidal rate of 5% or more and less than 20%),0 (Herbicidal rate of 5% or less (almost no effect)),3 (Herbicidal rate of 40% or more and less than 70%),0 (Herbicidal rate of 5% or less (almost no effect)),1 (Herbicidal rate of 5% or more and less than 20%),1 (Herbicidal rate of 5% or more and less than 20%),3 (Herbicidal rate of 40% or more and less than 70%),0 (Herbicidal rate of 5% or less (almost no effect)),0 (Herbicidal rate of 5% or less (almost no effect)),3 (Herbicidal rate of 40% or more and less than 70%),0 (Herbicidal rate of 5% or less (almost no effect)),–
CCCC(=O)Oc1c(C)nn(C)c(=O)c1-c1c(-c2ccc(OC)cc2)sc2cc(Cl)c(Cl)cc12 [5-044],–,–,–,–,–,3 (Herbicidal rate of 40% or more and less than 70%),3 (Herbicidal rate of 40% or more and less than 70%),3 (Herbicidal rate of 40% or more and less than 70%),0 (Herbicidal rate of 5% or less (almost no effect)),5 (Herbicidal rate of 90% or more (almost completely withered)),0 (Herbicidal rate of 5% or less (almost no effect)),4 (Herbicidal rate of 70% or more and less than 90%),0 (Herbicidal rate of 5% or less (almost no effect)),0 (Herbicidal rate of 5% or less (almost no effect)),3 (Herbicidal rate of 40% or more and less than 70%),0 (Herbicidal rate of 5% or less (almost no effect)),0 (Herbicidal rate of 5% or less (almost no effect)),0 (Herbicidal rate of 5% or less (almost no effect)),1 (Herbicidal rate of 5% or more and less than 20%),0 (Herbicidal rate of 5% or less (almost no effect)),–
